This is an account of results in ChEMBL document CHEMBL5038669, “Development of the First Covalent Monopolar Spindle Kinase 1 (MPS1/TTK) Inhibitor” (J Med Chem, 2022).

Active and inactive are the calls of the source. The calls are words filed in the database; no cut-off is given here.

As usually defined, the ΔTm is the change in melting temperature against a reference sample. Broadly, the IC50 is the point on the concentration scale where inhibition reaches its midpoint.

Test [1] deals with Cyclin-G-associated kinase (Homo sapiens) (UniProt O14976). Kind of test: Binding affinity to human GAK assessed as thermal stability by measuring melting temperature 10 uM by differential scanning fluorimetry. (Differential scanning fluorimetry follows unfolding on heating by fluorescence.)
For test [2], the target named is T1, Serine/threonine-protein kinase 17B (Homo sapiens) (UniProt O94768).
T1 sequence (whole entry): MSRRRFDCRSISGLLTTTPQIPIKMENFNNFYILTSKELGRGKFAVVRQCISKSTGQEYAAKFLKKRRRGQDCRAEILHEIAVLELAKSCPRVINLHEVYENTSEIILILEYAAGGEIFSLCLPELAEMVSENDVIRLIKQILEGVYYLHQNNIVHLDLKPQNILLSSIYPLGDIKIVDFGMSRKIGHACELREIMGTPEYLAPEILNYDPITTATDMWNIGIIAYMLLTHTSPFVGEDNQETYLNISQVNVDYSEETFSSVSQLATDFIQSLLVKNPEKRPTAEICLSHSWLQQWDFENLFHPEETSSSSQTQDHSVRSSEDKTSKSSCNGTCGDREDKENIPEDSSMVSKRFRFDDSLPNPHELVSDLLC
The settings on record: dose 10.0 µM.

The target of test [3] is T2, Dual specificity protein kinase TTK (Homo sapiens) (UniProt P33981).
T2 sequence (whole entry): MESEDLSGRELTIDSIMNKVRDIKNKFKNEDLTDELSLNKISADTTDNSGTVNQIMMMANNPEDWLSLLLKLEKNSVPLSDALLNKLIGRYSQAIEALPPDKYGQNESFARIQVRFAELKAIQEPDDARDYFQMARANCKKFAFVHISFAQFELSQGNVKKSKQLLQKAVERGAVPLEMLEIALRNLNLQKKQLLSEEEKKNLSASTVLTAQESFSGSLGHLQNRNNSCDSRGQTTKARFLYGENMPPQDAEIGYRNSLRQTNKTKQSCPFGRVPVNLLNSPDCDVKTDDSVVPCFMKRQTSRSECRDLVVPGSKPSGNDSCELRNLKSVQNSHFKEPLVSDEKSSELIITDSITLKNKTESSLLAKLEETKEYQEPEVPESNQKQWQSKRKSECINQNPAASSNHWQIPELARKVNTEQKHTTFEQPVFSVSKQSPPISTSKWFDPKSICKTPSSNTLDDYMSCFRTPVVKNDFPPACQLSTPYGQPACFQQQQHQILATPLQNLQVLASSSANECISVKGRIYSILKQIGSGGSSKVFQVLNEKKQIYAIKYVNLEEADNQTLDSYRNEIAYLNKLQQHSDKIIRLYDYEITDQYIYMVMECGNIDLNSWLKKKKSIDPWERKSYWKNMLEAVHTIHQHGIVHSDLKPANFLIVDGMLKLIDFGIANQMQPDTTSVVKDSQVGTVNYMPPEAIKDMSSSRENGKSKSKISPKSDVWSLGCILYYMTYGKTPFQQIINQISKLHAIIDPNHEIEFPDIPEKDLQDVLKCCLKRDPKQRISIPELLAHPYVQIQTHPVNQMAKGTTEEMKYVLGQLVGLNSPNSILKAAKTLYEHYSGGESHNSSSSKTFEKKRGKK
Kind of test: Displacement of tracer K9 from NanoLuc-fused MPS1 (unknown origin) expressed in HEK293T cells at 10 fold IC50 preincubated for 2 hrs followed by compound washout by NanoBRET assay. Type of test: cell-based. A general note: Bioluminescence resonance energy transfer reports proximity on the nanometre scale.

The target in test [4] is T3, Dual specificity protein kinase TTK (Homo sapiens, UniProt P33981).
T3 sequence (P33981 whole entry): T2 sequence (whole entry)
Kind of test: Displacement of tracer K9 from NanoLuc-fused MPS1 (unknown origin) expressed in HEK293T cells measured after 2 hrs by NanoBRET assay. In kind it is cell-based.

Test [5] concerns the target T3, Dual specificity protein kinase TTK. Kind of test: Inhibition of recombinant human full length N-terminal GST-fused MPS1 (1 to 857 residues) using histone H3 as substrate by TR-FRET assay. For orientation: TR-FRET usually uses a lanthanide donor and a delayed reading to cut background.

Sequence of Cyclin-G-associated kinase (Homo sapiens) (O14976 whole entry): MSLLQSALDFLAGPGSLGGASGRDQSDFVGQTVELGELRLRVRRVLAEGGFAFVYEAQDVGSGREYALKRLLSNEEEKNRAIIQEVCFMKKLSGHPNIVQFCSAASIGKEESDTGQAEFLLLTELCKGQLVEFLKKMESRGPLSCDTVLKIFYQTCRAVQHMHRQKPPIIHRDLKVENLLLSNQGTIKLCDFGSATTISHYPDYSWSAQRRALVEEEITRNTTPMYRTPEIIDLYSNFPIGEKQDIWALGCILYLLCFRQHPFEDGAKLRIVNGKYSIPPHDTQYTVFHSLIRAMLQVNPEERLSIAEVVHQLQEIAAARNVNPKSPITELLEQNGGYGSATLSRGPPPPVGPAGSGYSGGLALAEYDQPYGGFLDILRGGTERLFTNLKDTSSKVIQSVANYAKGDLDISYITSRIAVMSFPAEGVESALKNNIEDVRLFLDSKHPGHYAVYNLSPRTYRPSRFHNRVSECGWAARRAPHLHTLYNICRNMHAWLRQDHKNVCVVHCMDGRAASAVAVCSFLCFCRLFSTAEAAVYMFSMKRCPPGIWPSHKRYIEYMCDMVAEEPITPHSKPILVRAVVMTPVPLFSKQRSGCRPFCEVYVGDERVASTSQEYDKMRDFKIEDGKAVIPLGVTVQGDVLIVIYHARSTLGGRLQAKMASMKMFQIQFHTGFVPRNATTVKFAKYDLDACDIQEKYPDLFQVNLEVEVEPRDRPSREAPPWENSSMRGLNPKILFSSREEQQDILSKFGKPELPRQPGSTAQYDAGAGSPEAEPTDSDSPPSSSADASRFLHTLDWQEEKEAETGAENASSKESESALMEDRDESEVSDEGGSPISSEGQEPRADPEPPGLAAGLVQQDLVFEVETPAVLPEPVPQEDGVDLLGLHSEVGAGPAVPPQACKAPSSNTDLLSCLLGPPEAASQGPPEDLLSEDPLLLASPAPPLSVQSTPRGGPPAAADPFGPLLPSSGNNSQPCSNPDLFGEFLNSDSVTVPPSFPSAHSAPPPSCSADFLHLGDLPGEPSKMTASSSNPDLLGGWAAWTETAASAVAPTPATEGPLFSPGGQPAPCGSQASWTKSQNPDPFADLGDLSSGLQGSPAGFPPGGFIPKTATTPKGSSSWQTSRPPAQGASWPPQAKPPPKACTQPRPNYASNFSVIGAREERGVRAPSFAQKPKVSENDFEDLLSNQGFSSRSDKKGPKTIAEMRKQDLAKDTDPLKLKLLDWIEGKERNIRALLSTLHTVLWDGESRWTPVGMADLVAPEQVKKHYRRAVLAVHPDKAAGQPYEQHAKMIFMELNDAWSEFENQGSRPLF

Take `CCc1cccc(CC)c1NC(=O)c1ccn2c1CCc1cnc(Nc3ccc(N4CCN(C)CC4)cc3OC)nc1-2`: the thermal shift (ΔTm) was 13.2 °C in test [1] and 21.6 °C in test [2].

As for `COc1cc(OC2CCN(C)CC2)ccc1Nc1ncc2c(n1)n(C1CCCC1)c(=O)n2C`, the outcome in test [3] was inactive. In addition, in test [2], the shift in melting temperature (ΔTm) was determined as 11.5 °C.

On to `COc1ccc(Oc2cc(NCCC(F)(F)F)c3ncc(-c4ccc(C(=O)NC5CC5)c(C)c4)n3n2)c(F)c1F`, for which, in test [2], the ΔTm was 19.1 °C.

Turning to `CCC(=O)Nc1cc(N2CCN(C)CC2)ccc1Nc1ncc2c(n1)-n1ccc(C(=O)Nc3c(CC)cccc3CC)c1CC2`, the IC50 in test [4] stood at 0.0327 µM; in test [5], 0.00906 µM. Moreover, in test [2], the thermal shift (ΔTm) turned out to be 17.4 °C.
